Consider one compound from US7129213B2, “Tripeptides and tripeptide derivatives for the treatment of neurodegenerative diseases” (Neurotell AG, priority 2002, dated 2006).

Structures are written as SMILES. Counter-ions that a name gives are not always drawn. Where a SMILES comes first, the peptide text is derived from it.

This test concerns rats previously treated by vincristine. Put plainly: Vincristine model, sound avoidance conditioning (pole climbing test). Format: in vivo, rat. The method, then: The rats were slightly anesthetized by ether, an incision was made into the skin of the skull, and the skull was pierced by means of a dental burr. A metal needle was stereotaxically directed to the lateral ventricle, and then fixed by means of dental cement. Every day of the experiment, the patency of the needle was controlled.
Three days after introducing the needle (recovery from the postoperative shock) the non-anesthetized animals were injected 5 μl of normal saline with vincristine in a dose of 5 μg/kg/day. […] This administration was repeated every day for a period of five days.
Three days after the last administration of vincristine, the animals were chloralized (360 mg/kg), and, starting at the external carotid artery, a permanent floating catheter was retrogradely introduced into a common carotid artery. This catheter left again on the top of the skull, and was fixed by means of dental cement. After two days the animals had recovered from the postoperative shock. […] The steady state was reached on Day 3 after the last administration, and the model was stable for a period of several months. Once this lapse of time passed, a second type of degeneration was observed that affects the white matter, and was certainly due to apoptosis phenomena).
Five days after the last administration of vincristine, the twenty rats were randomly divided into two groups of 10 animals each: • one group of 10 rats received an intracarotid injection of 1 ml/kg/day of normal saline (controls) for a period of 10 days. • one group of 10 rats received 20 mg/kg/day of HCl-Gly-Phe-ProNH2 dissolved in normal saline for a period of 10 days. The injections were given at 9.00 a.m.
During the last five days of treatment, the rats were placed under the common learning conditions of the three models between 10.00 a.m. and 11.00 a.m. (see below).
During the last five days of treatment, at 10.00 a.m. (1 hour after the administration of HCl-Gly-Phe-ProNH2), the animals were placed into a learning cage for sound avoidance conditioning (Conditioning avoidance response). The animals learned to climb a pole first to escape from and then to avoid an electric shock. This method was standardized and quantified in our laboratory (see Le Poncin M., Lafitte J. C., Rapin J. R., Sound Avoidance Conditioning and a Mathematical approach to the description of acquisition performance, Math. Biosciences 59 (1982) 242–268).
For a period of five days, the animals were placed everyday under these learning conditions for a total of ten tests a day. Results are expressed as percentage of adequate responses, and the kinetics of the responses is represented by a multi-exponential maximum curve.
The curve maximum represents the learning capacities. The slope of the curve evaluates the learning speed. The area under the curve (AUC) represents a good evaluation of all conditioning parameters. The maximum value of the area under the curve is 500, if the animals show 100% adequate responses as early as Day 0. In fact, an average area under the curve is calculated per day, what amounts to a maximum value of 100. In the absolute control animals, this average area under the curve is equal to 40+/−4.

As to `NCC(=O)N[C@@H](Cc1ccccc1)C(=O)N1CCC[C@H]1C(N)=O` [HCl-Gly-Phe-ProNH2, glycyl-L-phenylalanyl-L-prolineamide] (H-Gly-Phe-Pro-NH2), where the note is “vincristine 5 μg/kg/day ICV 5 days, 20 mg/kg/day intracarotid 10 days, learning day D0”, the “percentage of adequate responses D0” value is given as 0%. For the same compound, the “AUC (average area under the learning curve per day)” value (vincristine model, 20 mg/kg/day 10 days) was “**24.8 +/− 3.2”. In addition, the “percentage of adequate responses D1” value (vincristine model, 20 mg/kg/day 10 days, learning day D1) is reported as 5 +/− 2%. Further, the “percentage of adequate responses D2” value (vincristine model, 20 mg/kg/day 10 days, learning day D2) is on record as “**20 +/− 4%”. Besides, the “percentage of adequate responses D3” value (vincristine model, 20 mg/kg/day 10 days, learning day D3) is given as “**40 +/− 5%”. Besides, the “percentage of adequate responses D4” value (vincristine model, 20 mg/kg/day 10 days, learning day D4) is given as “**59 +/− 6%”. Also, where the note is “vincristine model, intracarotid injection treatment”, the “effect on learning parameters” value is on record as “partly restores the learning parameters”.
